Test system: HCV genotype-1a variant with glutamine 30 changed to glutamate in the NS5A protein
Format: cell-based
Settings: test compound titrated with BMS-790052 fixed at 200 nM; genotype 1a Q30E replicon
Method in brief: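 Synergy was assessed by combining several fixed amounts of an NS5A-targeting compound with a titration of the second compound of interest.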

For `CC(C)N(C(=O)C(=O)NC(c1nc(-c2ccc(-c3ccc(-c4c[nH]c(C(NC(=O)C(=O)N(C(C)C)C5CC5)C5CC5)n4)cc3)cc2)c[nH]1)C1CC1)C1CC1` [Compound L-36], the “Fold-Synergistic 1a (Q30E)” value was >100 fold.

`CC(C)[C@H](NC(=O)c1cccc2c1OCC2)c1ncc(-c2ccc(-c3ccc(-c4cnc([C@@H](NC(=O)c5cccc6c5OCC6)C(C)C)[nH]4)cc3)cc2)[nH]1` [Compound S-55] was tested, and the “Fold-Synergistic 1a (Q30E)” value was >100 fold.

In the case of `O=C(N1CCC[C@H]1c1ncc(-c2ccc(-c3ccc(-c4cnc([C@@H]5CCCN5C(=O)C5(c6ccc(F)cc6Cl)CCCC5)[nH]4)cc3)cc2)[nH]1)C1(c2ccc(F)cc2Cl)CCCC1` [Compound S-156], the “Fold-Synergistic 1a (Q30E)” value is reported as <10 fold.

`CC(C)(C)[C@H](NC(=O)C1CC2(C1)OCCO2)c1nc(-c2ccc(-c3ccc(-c4c[nH]c([C@@H](NC(=O)C5CC6(C5)OCCO6)C(C)(C)C)n4)cc3)cc2)c[nH]1` (stereo partly drawn) [Compound W-178] was tested, and the “Fold-Synergistic 1a (Q30E)” value was >100 fold.

For `CC1(C)CC1C(=O)N[C@H](c1ncc(-c2ccc(-c3ccc(-c4cnc([C@@H](NC(=O)C5CC5(C)C)C(C)(C)C)[nH]4)cc3)cc2)[nH]1)C(C)(C)C` (single isomer, unassigned) [Compound B79], the “Fold-Synergistic 1a (Q30E)” value was >100 fold.

`CC(C)[C@H](NC(=O)c1ccc(C#N)cc1)c1ncc(-c2ccc(-c3ccc(-c4cnc([C@@H](NC(=O)c5ccc(C#N)cc5)C(C)C)[nH]4)cc3)cc2)[nH]1` [Compound S-81] was tested, and the “Fold-Synergistic 1a (Q30E)” value was >100 fold.

For `CC(C)(C)[C@H](NC(=O)C1CCCCC1CO)c1nc(-c2ccc(-c3ccc(-c4c[nH]c([C@@H](NC(=O)C5CCCCC5CO)C(C)(C)C)n4)cc3)cc2)c[nH]1` (single isomer, unassigned) [Compound L-141b], the “Fold-Synergistic 1a (Q30E)” value was >100 fold.

`CC(C)CC(=O)N[C@@H](c1nc(-c2ccc(-c3ccc(-c4c[nH]c([C@H](NC(=O)CC(C)C)C(C)C)n4)cc3)cc2)c[nH]1)C(C)C` [Compound P-54.1] was tested, and the “Fold-Synergistic 1a (Q30E)” value was >100 fold.

`CC(C)[C@H](NC(=O)COc1ccccc1)c1ncc(-c2ccc(-c3ccc(-c4cnc([C@@H](NC(=O)COc5ccccc5)C(C)C)[nH]4)cc3)cc2)[nH]1` [Compound S-35] was tested, and the “Fold-Synergistic 1a (Q30E)” value was >100 fold.

For `CC(OC(=O)NC1(C(=O)NC(c2nc(-c3ccc(-c4ccc(-c5c[nH]c(C(NC(=O)C6(NC(=O)OC(C)C(F)(F)F)CC6)C6(C)CC6)n5)cc4)cc3)c[nH]2)C2(C)CC2)CC1)C(F)(F)F` [Compound L-42], the “Fold-Synergistic 1a (Q30E)” value was >100 fold.

For `CCOC(=O)C(C)(C)C(=O)N[C@H](c1nc(-c2ccc(-c3ccc(-c4c[nH]c([C@@H](NC(=O)C(C)(C)C(=O)OCC)C(C)(C)C)n4)cc3)cc2)c[nH]1)C(C)(C)C.O=C(O)C(F)(F)F.O=C(O)C(F)(F)F` [Compound W-126], the “Fold-Synergistic 1a (Q30E)” value was >100 fold.

`Cc1cc(-c2ccc(-c3c[nH]c([C@@H](NC(=O)c4c(F)cccc4Cl)C(C)C)n3)cc2)ccc1-c1c[nH]c([C@@H](NC(=O)c2c(F)cccc2Cl)C(C)C)n1.O=C(O)C(F)(F)F` [Compound N-81] was tested, and the “Fold-Synergistic 1a (Q30E)” value was >100 fold.

In the case of `CC(C)(C)[C@H](NC(=O)C1CCC(F)(F)CC1)c1ncc(C#Cc2ccc3cc(C#Cc4cnc([C@@H](NC(=O)C5CCC(F)(F)CC5)C(C)(C)C)[nH]4)ccc3c2)[nH]1` [Compound B65], the “Fold-Synergistic 1a (Q30E)” value is reported as >100 fold.

For `CC(C)[C@H](NC(=O)C(=O)C1(C)CCC(F)(F)CC1)c1ncc(-c2ccc(-c3ccc(-c4cnc([C@@H](NC(=O)C(=O)C5(C)CCC(F)(F)CC5)C(C)C)[nH]4)cc3)cc2)[nH]1` [Compound P-112], the “Fold-Synergistic 1a (Q30E)” value was >100 fold.

With `CC(C)(C)[C@H](NC(=O)c1ccccc1F)c1nc(-c2ccc(-c3ccc(-c4c[nH]c([C@@H](NC(=O)c5ccccc5F)C(C)(C)C)n4)c(F)c3)cc2)c[nH]1.O=C(O)C(F)(F)F` [Compound N-95] the “Fold-Synergistic 1a (Q30E)” value was >100 fold.

From patent US20160158200A1, “Combinations of Hepatitis C Virus Inhibitors” (priority 2013, published 2016)
